According to publication PMC9556824, “Design, synthesis and computational study of new benzofuran hybrids as dual PI3K/VEGFR2 inhibitors targeting cancer” (Scientific Reports, 2022):
Where two headings read alike, the source gives them in different places.

Columns and labels:
[1] = system: human lung fibroblast (WI38); assay: In vitro cytotoxicity against human normal cell line (MTT); format: cell-based; conditions: for Average of Relative viability of cells (%): WI38; for IC50: mean ± SD, n = 3
Source text: (§1) The anticancer agent's selectivity for cancer cells is a critical consideration for any researcher, as it can decrease the molecule's adverse effects on normal human cells.

[2] = system: HePG2, MCF-7, Hela, PC3 cell lines; assay: Antitumor screening using MTT assay, statements across several cell lines; format: cell-based, human; conditions: HePG2, MCF-7, Hela, PC3
Source text: (§2) Hepatocellular carcinoma (HePG2), mammary gland breast cancer (MCF-7), epithelioid carcinoma cervix cancer (Hela), and human prostate cancer were included on the panel (PC3). […] The cell lines were obtained from the American Type Culture Collection (ATCC) through VACSERA, a Cairo-based holding firm for biological goods and vaccines.
(§3) The panel consisted of hepatocellular carcinoma (HePG2), mammary gland breast cancer (MCF-7), epithelioid carcinoma cervix cancer (Hela) and human prostate cancer (PC3). Human lung fibroblast (WI38) was used to assay the cytotoxicity effect on normal cell. The cell lines were obtained from ATCC via Holding company for biological products and vaccines (VACSERA), Cairo, Egypt. The cytotoxic activity was defined as the concentration of the compound that causes 50% growth inhibition compared with the growth of untreated cells.

[3] = system: mammary gland breast cancer (MCF-7); assay: Antitumor screening using MTT assay; conditions: for Average of Relative viability of cells (%): MCF7
Source text: as §2, §3

[4] = system: epithelioid carcinoma cervix cancer (Hela); assay: Antitumor screening using MTT assay; conditions: for IC50: read-out: In-vitro cytotoxicity IC50 (µM) Hela
Source text: as §2, §3

[5] = system: human prostate cancer (PC3); assay: Antitumor screening using MTT assay; conditions: for IC50: read-out: In-vitro cytotoxicity IC50 (µM) PC3
Source text: as §2, §3

[6] = system: Hepatocellular carcinoma (HePG2); assay: Antitumor screening using MTT assay; format: cell-based, human; conditions: for IC50: mean ± SD, n = 3, read-out: In-vitro cytotoxicity IC50 (µM) HePG2
[7] = In vitro cytotoxicity against human normal cell line (MTT); format: cell-based; conditions: human, WI38 human lung fibroblast cells (normal cell line), WI38, read-out: Average of Relative viability of cells (%)
Source text: as §1

[8] = Homo sapiens, MCF7, read-out: Average of Relative viability of cells (%)
[9] = Homo sapiens, HeLa, read-out: Average of Relative viability of cells (%)
[10] = Homo sapiens, read-out: Average of Relative viability of cells (%)

Question: For “2-(benzofuran-2-yl)-1-(4-methylpiperazin-1-yl)ethanethione [Compound 3]”, which “Average of Relative viability of cells (%)” value ([1]; Conc. 1.56 µM) is on record?
Answer: 100%

Question: What about the “Average of Relative viability of cells (%)” value ([1]; Conc. 3.125 µM) of the same compound?
Answer: 100%

Question: What about the “Average of Relative viability of cells (%)” value ([1]; Conc. 6.25 µM) of the same compound?
Answer: 97.0%

Question: And the “Average of Relative viability of cells (%)” value ([1]; Conc. 12.5 µM)?
Answer: 85.3%

Question: What about the “Average of Relative viability of cells (%)” value ([1]; Conc. 25 µM) of the same compound?
Answer: 71.8%

Question: And the “Average of Relative viability of cells (%)” value ([1]; Conc. 50 µM)?
Answer: 59.2%

Question: What about the “Average of Relative viability of cells (%)” value ([1]; Conc. 100 µM) of the same compound?
Answer: 47.4%

Question: What about the IC50 ([1]; human normal cell line WI38) of the same compound?
Answer: 78.5 ± 3.8 µM

Question: What about the “anticancer activity towards the four / all assessed cell lines (grade)” value [2] of the same compound?
Answer: weak (51–100 (weak))

Question: And the “Average of Relative viability of cells (%)” value ([3]; Conc. 1.56 µM)?
Answer: 100%

Question: What about the “Average of Relative viability of cells (%)” value ([3]; Conc. 3.125 µM) of the same compound?
Answer: 100%

Question: And the “Average of Relative viability of cells (%)” value ([3]; Conc. 6.25 µM)?
Answer: 94.7%

Question: And the “Average of Relative viability of cells (%)” value ([3]; Conc. 12.5 µM)?
Answer: 72.4%

Question: What about the “Average of Relative viability of cells (%)” value ([3]; Conc. 25 µM) of the same compound?
Answer: 61.3%

Question: And the “Average of Relative viability of cells (%)” value ([3]; Conc. 50 µM)?
Answer: 47.6%

Question: What about the “Average of Relative viability of cells (%)” value ([3]; Conc. 100 µM) of the same compound?
Answer: 33.9%

Question: What about the IC50 ([3]; read-out: In-vitro cytotoxicity IC50 (µM) MCF-7, MCF-7, mean ± SD, n = 3) of the same compound?
Answer: 45.1 ± 2.9 µM

Question: What about the “Average of Relative viability of cells (%)” value ([4]; Hela, Conc. 1.56 µM) of the same compound?
Answer: 100%

Question: What about the “Average of Relative viability of cells (%)” value ([4]; Hela, Conc. 3.125 µM) of the same compound?
Answer: 100%

Question: What about the “Average of Relative viability of cells (%)” value ([4]; Hela, Conc. 6.25 µM) of the same compound?
Answer: 97.1%

Question: And the “Average of Relative viability of cells (%)” value ([4]; Hela, Conc. 12.5 µM)?
Answer: 75.9%

Question: And the “Average of Relative viability of cells (%)” value ([4]; Hela, Conc. 25 µM)?
Answer: 64.8%

Question: What about the “Average of Relative viability of cells (%)” value ([4]; Hela, Conc. 50 µM) of the same compound?
Answer: 50.7%

Question: What about the “Average of Relative viability of cells (%)” value ([4]; Hela, Conc. 100 µM) of the same compound?
Answer: 36.1%

Question: What about the IC50 ([4]; Hela, mean ± SD, n = 3) of the same compound?
Answer: 51.4 ± 3.1 µM

Question: What about the “Average of Relative viability of cells (%)” value ([5]; PC3, Conc. 1.56 µM) of the same compound?
Answer: 100%

Question: What about the “Average of Relative viability of cells (%)” value ([5]; PC3, Conc. 3.125 µM) of the same compound?
Answer: 100%

Question: And the “Average of Relative viability of cells (%)” value ([5]; PC3, Conc. 6.25 µM)?
Answer: 100%

Question: What about the “Average of Relative viability of cells (%)” value ([5]; PC3, Conc. 12.5 µM) of the same compound?
Answer: 92.8%

Question: And the “Average of Relative viability of cells (%)” value ([5]; PC3, Conc. 25 µM)?
Answer: 71.9%

Question: And the “Average of Relative viability of cells (%)” value ([5]; PC3, Conc. 50 µM)?
Answer: 59.5%

Question: What about the “Average of Relative viability of cells (%)” value ([5]; PC3, Conc. 100 µM) of the same compound?
Answer: 37.5%

Question: And the IC50 ([5]; PC3, mean ± SD, n = 3)?
Answer: 65 ± 3.2 µM

Question: And the “Average of Relative viability of cells (%)” value ([6]; Conc. 1.56 µM)?
Answer: 100%

Question: And the “Average of Relative viability of cells (%)” value ([6]; Conc. 3.125 µM)?
Answer: 100%

Question: What about the “Average of Relative viability of cells (%)” value ([6]; Conc. 6.25 µM) of the same compound?
Answer: 82.4%

Question: What about the “Average of Relative viability of cells (%)” value ([6]; Conc. 12.5 µM) of the same compound?
Answer: 76.1%

Question: What about the “Average of Relative viability of cells (%)” value ([6]; Conc. 25 µM) of the same compound?
Answer: 50.2%

Question: What about the “Average of Relative viability of cells (%)” value ([6]; Conc. 50 µM) of the same compound?
Answer: 42.8%

Question: What about the “Average of Relative viability of cells (%)” value ([6]; Conc. 100 µM) of the same compound?
Answer: 29.5%

Question: And the IC50 [6]?
Answer: 34.8 ± 2.5 µM

Question: For `O=C(/C=C/N1CCCCC1)c1cc2ccccc2o1` [Compound 5, (E)-1-(benzofuran-2-yl)-3-(piperidin-1-yl)prop-2-en-1-one], which melting point is on record?
Answer: 136 to 138 °C

Question: And the viability at 1.56 µM ([7]; Conc. 1.56 µM)?
Answer: 100%

Question: What about the viability at 3.125 µM ([7]; Conc. 3.125 µM) of the same compound?
Answer: 100%

Question: And the viability at 6.25 µM ([7]; Conc. 6.25 µM)?
Answer: 100%

Question: What about the viability at 12.5 µM ([7]; Conc. 12.5 µM) of the same compound?
Answer: 91.8%

Question: And the viability at 25 µM ([7]; Conc. 25 µM)?
Answer: 72.3%

Question: What about the viability at 50 µM ([7]; Conc. 50 µM) of the same compound?
Answer: 57.1%

Question: And the viability at 100 µM ([7]; Conc. 100 µM)?
Answer: 38.2%

Question: What about the IC50 ([1]; Homo sapiens, WI-38, human normal cell line WI38) of the same compound?
Answer: 64 ± 3.1 µM

Question: What about the viability at 1.56 µM [3, 8] of the same compound?
Answer: 100%

Question: And the viability at 3.125 µM [3, 8]?
Answer: 96.2%

Question: What about the viability at 6.25 µM [3, 8] of the same compound?
Answer: 72.1%

Question: And the viability at 12.5 µM [3, 8]?
Answer: 54.9%

Question: What about the viability at 25 µM [3, 8] of the same compound?
Answer: 41.8%

Question: What about the viability at 50 µM [3, 8] of the same compound?
Answer: 32.5%

Question: What about the viability at 100 µM [3, 8] of the same compound?
Answer: 20.4%

Question: What about the IC50 ([3]; Homo sapiens, MCF7, read-out: In-vitro cytotoxicity IC50 (µM) MCF-7) of the same compound?
Answer: 19.9 ± 1.5 µM

Question: What about the viability at 1.56 µM [4, 9] of the same compound?
Answer: 100%

Question: What about the viability at 3.125 µM [4, 9] of the same compound?
Answer: 96.6%

Question: And the viability at 6.25 µM [4, 9]?
Answer: 79.3%

Question: What about the viability at 12.5 µM [4, 9] of the same compound?
Answer: 62.9%

Question: And the viability at 25 µM [4, 9]?
Answer: 51.4%

Question: And the viability at 50 µM [4, 9]?
Answer: 38.1%

Question: And the viability at 100 µM [4, 9]?
Answer: 26.3%

Question: What about the IC50 ([4]; Homo sapiens, HeLa) of the same compound?
Answer: 28.3 ± 2.2 µM

Question: And the viability at 1.56 µM [5, 10]?
Answer: 100%

Question: And the viability at 3.125 µM [5, 10]?
Answer: 100%

Question: And the viability at 6.25 µM [5, 10]?
Answer: 92.7%

Question: And the viability at 12.5 µM [5, 10]?
Answer: 67.2%

Question: What about the viability at 25 µM [5, 10] of the same compound?
Answer: 58.1%

Question: And the viability at 50 µM [5, 10]?
Answer: 47.8%

Question: What about the viability at 100 µM [5, 10] of the same compound?
Answer: 32.9%

Question: And the IC50 ([5]; Homo sapiens)?
Answer: 41.5 ± 2.6 µM

Question: And the viability at 1.56 µM ([6]; Homo sapiens, Conc. 1.56 µM, read-out: Average of Relative viability of cells (%))?
Answer: 100%

Question: What about the viability at 3.125 µM ([6]; Homo sapiens, Conc. 3.125 µM, read-out: Average of Relative viability of cells (%)) of the same compound?
Answer: 76.8%

Question: What about the viability at 6.25 µM ([6]; Homo sapiens, Conc. 6.25 µM, read-out: Average of Relative viability of cells (%)) of the same compound?
Answer: 65%

Question: What about the viability at 12.5 µM ([6]; Homo sapiens, Conc. 12.5 µM, read-out: Average of Relative viability of cells (%)) of the same compound?
Answer: 42.3%

Question: And the viability at 25 µM ([6]; Homo sapiens, Conc. 25 µM, read-out: Average of Relative viability of cells (%))?
Answer: 37.2%

Question: And the viability at 50 µM ([6]; Homo sapiens, Conc. 50 µM, read-out: Average of Relative viability of cells (%))?
Answer: 24%

Question: What about the viability at 100 µM ([6]; Homo sapiens, Conc. 100 µM, read-out: Average of Relative viability of cells (%)) of the same compound?
Answer: 15.3%

Question: And the IC50 ([6]; Homo sapiens)?
Answer: 12.6 ± 1 µM
